Test results taken from patent US4065356A, “Production of antibiotic FR-02A (efrotomycin) by streptomyces lactamdurans” (priority 1977, dated 1977).
Structures can show the parent of a compound that is named as a salt.

Assay: solubility
Format: physicochemical

solubility in water-immiscible organic solvents (water-immiscible organic solvents)	SMILES	solubility in alcohol and chloroform (ammonium salt, alcohol and chloroform)	solubility in water (ammonium salt, water at pH 7.0 or higher)
virtually insoluble	CO[C@@]1(NC(=O)CCC[C@@H](N)C(=O)O)C(=O)N2C(C(=O)O)=C(COC(N)=O)CS[C@@H]21 [Cephamycin C, reference compound]		
	CC=CC=CC1OC(O)(C(CC)C(=O)NCC=CC=C(C)C(OC)C(C)C2OC(C=CC=CC=C(C)C(=O)c3c(O)ccn(C)c3=O)C(O)C2O)C(O)C(OC2OC(C)C(OC3OC(C)C(OC)C(O)C3OC)C(OC)C2O)C1(C)C (stereo not drawn) [FR-02A as the ammonium salt]	soluble	moderately soluble
